Laboratory results published in PMC7753147, “High-throughput determination of protein affinities using unmodified peptide libraries in nanomolar scale” (iScience, 2020).

Tests used:
native geph = assay: µSPOT peptide microarray binding assay with native geph from mouse brain lysate
gephE = assay: µSPOT peptide microarray binding assay with recombinant gephE
FL-geph = assay: µSPOT peptide microarray binding assay with full-length geph
[1] = µSPOT full positional scan of GlyRβ 15-mer DLRSNDFSIVGSLPR, native geph, intensity normalised to wild-type sequence (= 1)
[2] = µSPOT full positional scan of GlyRβ 15-mer DLRSNDFSIVGSLPR, intensity normalised to wild-type sequence (= 1)
[3] = µSPOT peptide microarray, GlyRβ full positional scan, native geph from mouse brain lysate, intensity normalised to wild-type sequence DLRSNDFSIVGSLPR (=1)
[4] = µSPOT peptide microarray, GlyRβ full positional scan, recombinant gephE, intensity normalised to wild-type sequence DLRSNDFSIVGSLPR (=1)
[5] = µSPOT peptide microarray, GlyRβ full positional scan, intensity normalised to wild-type sequence DLRSNDFSIVGSLPR (=1)

Sequence	Native geph Binding Intensity [norm.] (native geph; [1])	gephE Binding Intensity [norm.] (gephE; [2])	Fl-geph Binding Intensity [norm.] (FL-geph; [2])	Native geph Binding Intensity [norm.] (native geph; [3])	gephE Binding Intensity [norm.] (gephE; [4])	Fl-geph Binding Intensity [norm.] (FL-geph; [5])
DLRSNDFSIVGSLAR [GlyRβ_Full_Positional_Scan_261]	0.63	0.67	0.99			
DLRSNDFSIVPSLPR [GlyRβ_Full_Positional_Scan_205, GlyR β 414-428 variant G424P]				0.21	0.41	0.5
DLDSNDFSIVGSLPR [GlyRβ_Full_Positional_Scan_050]				1.45	1.09	1.38
DLRSNDQSIVGSLPR [GlyRβ_Full_Positional_Scan_140, GlyR β 414-428 variant F420Q]				0.43	0.48	0.66
DWRSNDFSIVGSLPR [GlyRβ_Full_Positional_Scan_028]				0.6	0.8	0.82
DLRSNDTSIVGSLPR [GlyRβ_Full_Positional_Scan_136, GlyR β 414-428 variant F420T]				0.36	0.47	0.51
MLRSNDFSIVGSLPR [GlyRβ_Full_Positional_Scan_018]				1.2	1.13	1.04
DLRSNDCSIVGSLPR [GlyRβ_Full_Positional_Scan_137, GlyR β 414-428 variant F420C]				0.53	0.67	0.63
DLRSDDFSIVGSLPR [GlyRβ_Full_Positional_Scan_090]				0.98	0.96	0.94
DLRSNDFSRVGSLPR [GlyRβ_Full_Positional_Scan_172, GlyR β 414-428 variant I422R]				0.16	0.57	0.62
DLRSNDFSIRGSLPR [GlyRβ_Full_Positional_Scan_192, GlyR β 414-428 variant V423R]				0.21	0.6	0.73
DLESNDFSIVGSLPR [GlyRβ_Full_Positional_Scan_051]				1.3	1.03	1.39
DLRSNGFSIVGSLPR [GlyRβ_Full_Positional_Scan_102]				0.65	1	1.07
DLRSQDFSIVGSLPR [GlyRβ_Full_Positional_Scan_100]				0.97	0.96	1.01
DLRANDFSIVGSLPR [GlyRβ_Full_Positional_Scan_061]				1.12	0.98	0.86
DLRSNDSSIVGSLPR [GlyRβ_Full_Positional_Scan_135, GlyR β 414-428 variant F420S]				0.35	0.51	0.46
DLMSNDFSIVGSLPR [GlyRβ_Full_Positional_Scan_058]				1.59	0.77	1.3
DLRSKDFSIVGSLPR [GlyRβ_Full_Positional_Scan_094]				0.66	0.92	0.79

Sequence	Native geph Binding Intensity [norm.] (native geph; [1])	gephE Binding Intensity [norm.] (gephE; [2])	Fl-geph Binding Intensity [norm.] (FL-geph; [2])	Native geph Binding Intensity [norm.] (native geph; [3])	gephE Binding Intensity [norm.] (gephE; [4])	Fl-geph Binding Intensity [norm.] (FL-geph; [5])
DLRSNDFEIVGSLPR [GlyRβ_Full_Positional_Scan_151, GlyR β 414-428 variant S421E]				0.2	0.47	0.79
DLRSNDFSIVGSLPR [GlyRβ_Full_Positional_Scan_099]				1	1	1
DLNSNDFSIVGSLPR [GlyRβ_Full_Positional_Scan_059]				1.28	0.85	1.17
DARSNDFSIVGSLPR [GlyRβ_Full_Positional_Scan_021]				0.95	1.01	1.04
DLRSNDFSIVGSDPR [GlyRβ_Full_Positional_Scan_250]	0.61	0.72	1.05			
DLRSNDFSHVGSLPR [GlyRβ_Full_Positional_Scan_173, GlyR β 414-428 variant I422H]				0.21	0.41	0.55
DLRSEDFSIVGSLPR [GlyRβ_Full_Positional_Scan_091]				0.96	0.96	1
DMRSNDFSIVGSLPR [GlyRβ_Full_Positional_Scan_038]				1.09	0.97	0.97
DLRSNDFMIVGSLPR [GlyRβ_Full_Positional_Scan_158, GlyR β 414-428 variant S421M]				0.54	0.73	0.88
SLRSNDFSIVGSLPR [GlyRβ_Full_Positional_Scan_015]				0.69	1.04	0.91
DLRSNDFSIVGSIPR [GlyRβ_Full_Positional_Scan_243]	0.93	0.94	1			
DLRLNDFSIVGSLPR [GlyRβ_Full_Positional_Scan_064]				0.88	0.9	0.89
DLRSNDFSIWGSLPR [GlyRβ_Full_Positional_Scan_188, GlyR β 414-428 variant V423W]				0.27	0.68	0.62
DLRSNTFSIVGSLPR [GlyRβ_Full_Positional_Scan_116]				0.75	0.85	0.97
DLRSNDFNIVGSLPR [GlyRβ_Full_Positional_Scan_159, GlyR β 414-428 variant S421N]				0.64	0.72	1.03
DLRSNDFSIVNSLPR [GlyRβ_Full_Positional_Scan_219, GlyR β 414-428 variant G424N]	0.17	0.38	0.41			
DLRSWDFSIVGSLPR [GlyRβ_Full_Positional_Scan_088]				0.47	0.86	0.66
DLRSNDFSIVGSEPR [GlyRβ_Full_Positional_Scan_251]	0.67	0.8	1.11			
